Data published in ChEMBL document CHEMBL5385916, “Discovery of a novel series of pyridone amides as NaV1.8 inhibitors” (Bioorg Med Chem Lett, 2024).
Calls of active or inactive are those of the source. The calls are words filed in the database; no cut-off is given here.

Experiments:
[1] = target: T1, Sodium channel protein type 10 subunit alpha (Homo sapiens, UniProt Q9Y5Y9); test: Binding affinity to Nav1.8 (unknown origin) expressed in HEK293T cells assessed as retention time by cell membrane chromatography analysis; format: cell membranes
Target sequence in this assay (Q9Y5Y9 whole entry, looked up): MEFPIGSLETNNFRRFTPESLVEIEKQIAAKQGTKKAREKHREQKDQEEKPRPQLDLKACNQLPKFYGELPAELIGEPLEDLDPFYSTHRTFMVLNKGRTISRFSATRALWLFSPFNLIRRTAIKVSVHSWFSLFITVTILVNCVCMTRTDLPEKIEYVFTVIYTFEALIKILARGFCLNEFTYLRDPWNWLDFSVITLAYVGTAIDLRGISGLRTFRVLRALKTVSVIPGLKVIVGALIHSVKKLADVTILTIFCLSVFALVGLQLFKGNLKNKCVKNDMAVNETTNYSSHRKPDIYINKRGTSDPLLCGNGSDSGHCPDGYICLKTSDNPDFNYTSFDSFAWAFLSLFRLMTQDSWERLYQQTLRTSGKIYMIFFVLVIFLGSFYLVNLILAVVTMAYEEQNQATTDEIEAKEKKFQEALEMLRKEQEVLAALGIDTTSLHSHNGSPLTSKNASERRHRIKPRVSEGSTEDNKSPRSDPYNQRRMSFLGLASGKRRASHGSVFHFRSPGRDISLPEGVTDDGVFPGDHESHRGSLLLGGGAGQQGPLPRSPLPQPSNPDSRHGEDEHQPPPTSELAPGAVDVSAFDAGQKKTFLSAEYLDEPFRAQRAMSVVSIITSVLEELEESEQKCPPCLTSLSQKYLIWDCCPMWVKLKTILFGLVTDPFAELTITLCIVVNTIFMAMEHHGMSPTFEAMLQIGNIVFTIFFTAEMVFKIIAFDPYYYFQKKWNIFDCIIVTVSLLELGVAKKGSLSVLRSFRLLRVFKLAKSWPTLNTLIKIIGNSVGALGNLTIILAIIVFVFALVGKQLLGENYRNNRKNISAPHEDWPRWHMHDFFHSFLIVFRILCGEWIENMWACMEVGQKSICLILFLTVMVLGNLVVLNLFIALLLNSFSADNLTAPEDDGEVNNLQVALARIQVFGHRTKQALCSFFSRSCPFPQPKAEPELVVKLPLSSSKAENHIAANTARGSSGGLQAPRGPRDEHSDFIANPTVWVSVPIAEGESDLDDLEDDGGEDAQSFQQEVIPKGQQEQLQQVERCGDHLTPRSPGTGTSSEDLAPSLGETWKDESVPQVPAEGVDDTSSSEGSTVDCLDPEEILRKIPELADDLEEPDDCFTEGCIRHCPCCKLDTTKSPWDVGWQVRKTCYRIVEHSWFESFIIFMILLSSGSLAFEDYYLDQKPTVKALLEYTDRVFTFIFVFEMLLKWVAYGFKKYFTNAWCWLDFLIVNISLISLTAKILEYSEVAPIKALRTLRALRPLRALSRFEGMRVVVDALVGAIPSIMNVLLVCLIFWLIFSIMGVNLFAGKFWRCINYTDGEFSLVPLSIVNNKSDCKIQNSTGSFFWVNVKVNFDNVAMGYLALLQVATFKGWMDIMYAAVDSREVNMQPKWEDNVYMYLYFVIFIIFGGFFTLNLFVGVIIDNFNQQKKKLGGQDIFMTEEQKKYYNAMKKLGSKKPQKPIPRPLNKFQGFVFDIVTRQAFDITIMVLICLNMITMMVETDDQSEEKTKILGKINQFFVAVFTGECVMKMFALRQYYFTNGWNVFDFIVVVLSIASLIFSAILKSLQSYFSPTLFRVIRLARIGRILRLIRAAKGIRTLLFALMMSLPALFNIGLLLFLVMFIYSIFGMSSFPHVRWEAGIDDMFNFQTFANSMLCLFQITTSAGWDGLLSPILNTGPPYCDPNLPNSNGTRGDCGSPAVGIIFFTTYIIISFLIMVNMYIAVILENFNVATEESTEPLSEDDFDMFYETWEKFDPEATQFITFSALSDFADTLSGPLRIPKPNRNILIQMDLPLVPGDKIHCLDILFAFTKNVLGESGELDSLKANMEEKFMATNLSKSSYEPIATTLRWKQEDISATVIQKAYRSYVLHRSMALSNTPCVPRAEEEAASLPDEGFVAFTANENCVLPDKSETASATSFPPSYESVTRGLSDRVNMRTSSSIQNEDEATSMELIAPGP

[2] = target: Sodium channel protein type 5 subunit alpha (Homo sapiens, UniProt Q14524); test: Binding affinity to Nav1.5 (unknown origin) expressed in HEK293T cells assessed as retention time by cell membrane chromatography analysis; format: cell membranes
[3] = Selectivity ratio of binding affinity to Nav1.8 (unknown origin) expressed in HEK293T cells assessed as retention time to binding affinity to Nav1.5 (unknown origin) expressed in HEK293T cells assessed as retention time; format: cell-based
[4] = target: T1, Sodium channel protein type 10 subunit alpha; test: Inhibition of Nav1.8 (unknown origin) at 10 uM under resting state by whole-cell patch clamp analysis relative to control
Target sequence in this assay (Q9Y5Y9 whole entry, looked up): as above

[5] = target: T1, Sodium channel protein type 10 subunit alpha; test: Inhibition of Nav1.8 (unknown origin) at 10 uM under half inaction state by whole-cell patch clamp analysis relative to control
Target sequence in this assay (Q9Y5Y9 whole entry, looked up): as above

Mus musculus [6] = test: Analgesic activity in CFA-induced inflammatory pain mouse model assessed as paw withdrawal response to von frey stimuli at 100 microg/kg, ip; format: functional, organism-based; conditions: dose 100.0 µg/kg
Mus musculus [7] = test: Analgesic activity in CFA-induced inflammatory pain mouse model assessed as paw withdrawal response to von frey stimuli at 100 microg/kg, ip measured for 5 hrs; format: functional, organism-based; conditions: dose 100.0 µg/kg
Mus musculus [8] = test: Analgesic activity in CFA-induced inflammatory pain mouse model assessed as paw withdrawal response to von frey stimuli at 100 microg/kg, ip measured for 9 hrs; format: functional, organism-based; conditions: dose 100.0 µg/kg
[9] = target: T1, Sodium channel protein type 10 subunit alpha; test: Inhibition of Nav1.8 in HEK293 cells under resting state; format: cell-based
[10] = target: T1, Sodium channel protein type 10 subunit alpha; test: Inhibition of Nav1.8 in HEK293 cells under half inaction state; format: cell-based
Mus musculus [11] = test: Analgesic activity in chronic constriction injury mouse model assessed as paw withdrawal response to von frey stimuli at 100 microg/kg, ip administered for 8 days and measured upto 9 hrs; format: functional, organism-based; conditions: dose 100.0 µg/kg, time <= 201.0 hrs
[12] = Toxicity in mouse assessed as adverse effects at 100 microg/kg, ip administered for 8 days and measured upto 9 hrs; format: organism-based; conditions: in vivo, 0.1 mg/kg, 201 h, dose 100 µg/kg
Mus musculus [13] = test: Analgesic activity in chronic constriction injury mouse model assessed as fold increase in AUC at 100 microg/kg, ip administered for 8 days relative to model group; format: functional; conditions: dose 100 µg/kg, time 8 day
Mus musculus [14] = test: Analgesic activity in chronic constriction injury mouse model at 100 microg/kg, ip administered for 10 to 14 days; format: functional, organism-based; conditions: dose 100.0 µg/kg, time 10-14 day
Mus musculus [15] = test: Analgesic activity in cold pain hypersensitivity mouse model at 100 microg/kg, ip measured for 8 days; format: functional, organism-based; conditions: dose 100.0 µg/kg, time 8.0 day
Mus musculus [16] = test: Analgesic activity in CFA-induced inflammatory pain mouse model assessed as paw withdrawal response to von frey stimuli at 100 microg/kg, po administered for 8 days and measured upto 7 hrs; format: functional, organism-based; conditions: dose 100.0 µg/kg, time <= 199.0 hrs

Sequence of Sodium channel protein type 5 subunit alpha (Q14524 whole entry): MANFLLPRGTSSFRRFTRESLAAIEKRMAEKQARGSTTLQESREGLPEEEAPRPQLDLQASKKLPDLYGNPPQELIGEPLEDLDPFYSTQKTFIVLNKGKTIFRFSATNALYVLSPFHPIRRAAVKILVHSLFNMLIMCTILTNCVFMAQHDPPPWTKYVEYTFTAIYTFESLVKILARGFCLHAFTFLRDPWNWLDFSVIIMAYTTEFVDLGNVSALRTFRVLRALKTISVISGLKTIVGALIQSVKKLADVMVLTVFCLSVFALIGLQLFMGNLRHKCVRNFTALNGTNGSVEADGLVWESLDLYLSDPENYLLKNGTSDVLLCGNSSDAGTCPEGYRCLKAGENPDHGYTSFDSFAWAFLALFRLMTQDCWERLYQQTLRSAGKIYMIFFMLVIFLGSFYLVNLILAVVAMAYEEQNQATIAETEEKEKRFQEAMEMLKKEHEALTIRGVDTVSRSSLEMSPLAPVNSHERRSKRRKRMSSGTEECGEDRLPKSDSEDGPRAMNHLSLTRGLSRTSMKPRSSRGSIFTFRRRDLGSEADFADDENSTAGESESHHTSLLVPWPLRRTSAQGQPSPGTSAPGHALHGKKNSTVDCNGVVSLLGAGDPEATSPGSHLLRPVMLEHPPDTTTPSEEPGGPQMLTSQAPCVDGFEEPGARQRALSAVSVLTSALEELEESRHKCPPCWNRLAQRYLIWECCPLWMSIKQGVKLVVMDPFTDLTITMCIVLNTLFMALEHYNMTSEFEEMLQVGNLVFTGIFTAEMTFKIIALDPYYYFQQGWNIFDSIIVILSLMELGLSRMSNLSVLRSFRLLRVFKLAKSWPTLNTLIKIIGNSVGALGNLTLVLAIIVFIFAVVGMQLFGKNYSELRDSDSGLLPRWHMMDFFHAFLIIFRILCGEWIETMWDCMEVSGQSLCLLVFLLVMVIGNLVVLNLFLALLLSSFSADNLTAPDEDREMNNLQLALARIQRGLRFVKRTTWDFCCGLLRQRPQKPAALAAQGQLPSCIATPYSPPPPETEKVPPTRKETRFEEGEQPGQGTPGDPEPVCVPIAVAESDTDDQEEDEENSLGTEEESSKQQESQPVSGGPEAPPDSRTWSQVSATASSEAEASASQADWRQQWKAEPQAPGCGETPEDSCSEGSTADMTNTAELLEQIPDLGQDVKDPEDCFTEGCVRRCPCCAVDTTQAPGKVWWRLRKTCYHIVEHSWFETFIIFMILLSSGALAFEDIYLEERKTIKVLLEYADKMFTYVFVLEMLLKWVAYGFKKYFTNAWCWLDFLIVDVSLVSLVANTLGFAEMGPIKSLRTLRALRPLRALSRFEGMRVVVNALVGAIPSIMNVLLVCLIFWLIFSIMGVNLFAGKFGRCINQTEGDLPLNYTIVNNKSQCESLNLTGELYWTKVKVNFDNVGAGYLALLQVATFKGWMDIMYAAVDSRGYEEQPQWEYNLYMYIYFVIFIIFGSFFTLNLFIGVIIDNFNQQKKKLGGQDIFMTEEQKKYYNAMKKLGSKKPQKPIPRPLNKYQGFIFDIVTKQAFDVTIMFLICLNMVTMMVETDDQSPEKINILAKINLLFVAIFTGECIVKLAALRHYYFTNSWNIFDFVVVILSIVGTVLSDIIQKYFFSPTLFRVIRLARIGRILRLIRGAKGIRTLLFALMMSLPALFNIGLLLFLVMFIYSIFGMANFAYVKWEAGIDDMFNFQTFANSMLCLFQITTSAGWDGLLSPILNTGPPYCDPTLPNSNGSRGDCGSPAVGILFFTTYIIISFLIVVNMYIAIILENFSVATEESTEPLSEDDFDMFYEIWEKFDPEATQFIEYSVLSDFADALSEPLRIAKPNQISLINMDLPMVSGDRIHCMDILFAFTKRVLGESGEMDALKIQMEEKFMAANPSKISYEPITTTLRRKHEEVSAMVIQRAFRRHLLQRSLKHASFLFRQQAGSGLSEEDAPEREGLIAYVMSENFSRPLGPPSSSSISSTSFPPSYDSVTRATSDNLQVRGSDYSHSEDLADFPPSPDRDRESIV

Compound	Retention time [1] [min]	Retention_time [2] [min]	Selectivity ratio [3]	Activity (Mus musculus [6])	other results
O=C(Nc1cc[nH]c(=O)c1)c1ccc(C(F)(F)F)cc1Oc1ccccc1	4.7	8.6	0.55		
COc1cc(NC(=O)c2ncc(C(F)(F)F)cc2Oc2ccc(F)cc2C)ccn1	22	12.3	1.79	Active	inhibition [4]: 82.5%; inhibition [5]: 84.5%; Activity (Mus musculus [7]): Active; Activity (Mus musculus [8]): Active
Cc1cc(F)ccc1Oc1cc(C(F)(F)F)ccc1C(=O)Nc1cccc(O)c1	36.5	7.1	5.14		
Cc1cc(F)ccc1Oc1cc(C(F)(F)F)ccc1C(=O)NCc1ccccc1	56.1	> 60	0.94		
CN1CCN(c2cc(C(F)(F)F)ccc2C(=O)Nc2cc[nH]c(=O)c2)CC1	53.8	1.3	41.4	Active	
O=C(Nc1cc[nH]c(=O)c1)c1ccc(C(F)(F)F)cc1Oc1ccncc1	1.6	1.7	0.94		
O=C(Nc1cc[nH]c(=O)c1)c1ccc(C(F)(F)F)cc1N1CCC(C(F)(F)F)CC1	10.5	11.7	0.9	Active	inhibition [4]: 93.4%; inhibition [5]: 92.2%; Activity (Mus musculus [7]): Active; Activity (Mus musculus [8]): Active; IC50 [9]: 0.513 µM; inhibition ([9]; dose 0.1-10 µM): Dose-Dependent Effect; IC50 [10]: 0.472 µM; inhibition ([10]; dose 0.1-10 µM): Dose-Dependent Effect; Activity (Mus musculus [11]): Active; Activity [12]: Non-Toxic; fold change (FC) (Mus musculus [13]): 2; Activity (Mus musculus [14]): Active; Activity (Mus musculus [15]): Active; Activity (Mus musculus [16]): Active
Cc1cc(F)ccc1Oc1cc(C(F)(F)F)ccc1C(=O)Nc1cc[nH]c(=O)c1	11.8	20.6	0.57		
O=C(Nc1cc[nH]c(=O)c1)c1ccc(C(F)(F)F)cc1Sc1ccc(F)cc1	9.2	16.1	0.57	Active	inhibition [4]: 87.5%; inhibition [5]: 88.8%; Activity (Mus musculus [7]): Active; Activity (Mus musculus [8]): Active
Cc1cc(F)ccc1Oc1cc(C(F)(F)F)ccc1C(=O)Nc1ccncc1	30	3	10	Active	
Cc1cc(F)ccc1Oc1cc(C(F)(F)F)ccc1C(=O)NCc1cc[nH]c(=O)c1	6	9.1	0.66		
O=C(Nc1cc[nH]c(=O)c1)c1ccc(C(F)(F)F)cc1OC1CC=CC1	10.1	16.4	0.61		
COc1cc(NC(=O)c2ccc([N+](=O)[O-])cc2Oc2ccc(F)cc2C)ccn1	4.6	4.6	0.62		

Second part, led by results:

Retention time [1] [min]	Compound	Retention_time [2] [min]	Selectivity ratio [3]	Activity (Mus musculus [6])	other results
2.4	O=C(Nc1cc[nH]c(=O)c1)c1ccc(C(F)(F)F)cc1Oc1ccc(F)nc1	2.6	0.92		
4.6	COc1cccc(NC(=O)c2ccc(C(F)(F)F)cc2Oc2ccc(F)cc2C)c1	7.3	0.63		
5.8	Cc1cc(F)ccc1Oc1cc(C(F)(F)F)ccc1C(=O)Nc1ccccc1	7.3	0.79		
4.5	Cc1cc(F)ccc1Oc1cc([N+](=O)[O-])ccc1C(=O)Nc1cc[nH]c(=O)c1	4.5	0.52		
3.8	O=C(Nc1cc[nH]c(=O)c1)c1ccc(C(F)(F)F)cc1OC1CCC(F)(F)CC1	5.8	0.66		
> 60	Cc1cc(F)ccc1Oc1cc(C(F)(F)F)ccc1C(=O)Nc1ccc2cc[nH]c2c1	> 60	1	Active	inhibition [4]: -0.26%; inhibition [5]: 1.55%
6.1	COc1cc(NC(=O)c2ccc(C(F)(F)F)cc2Oc2ccc(F)cc2C)ccn1	17.8	0.34		
